Assay results reported in US9745337B2, “Complex compounds of germanium, methods for producing same, and drugs” (priority 2012, dated 2017).
In brackets after ≈: the same amount, converted by molar mass. Like-named read-outs stand apart in the source and are kept apart here.

Columns and labels:
[1] = tested on: herpes simplex viruses type 1 (HSV-1); details: cited from earlier work
[2] = in vivo; cited from earlier work
[3] = cited from earlier work
[4] = tested on: Varicella-Zoster virus; details: S-acetyl glutathione 0.35 mg/mL with three acyclovir concentrations, strongest at 0.9 mcg/mL acyclovir; cited from earlier work
[5] = tested on: herpes simplex virus (HSV-1); details: cited from earlier work
[6] = tested on: HSV-1 “L2/R” virus; type: cell-based, herpes simplex virus type I; details: concentrations of 500 mcg/mL and 250 mcg/mL, VERO
Description: The criteria used to evaluate the antiviral activity were: the ability to prevent the development of a virus-induced cytopathic effect and the ability to inhibit reproduction of the virus in the cell culture. Test samples were inserted into the nutrient medium 1 hour after the culture was infected with a certain dose of the virus (the therapeutic scheme). The antiviral activity of the samples and virus-induced cytopathic effects in the cell culture were monitored every day using light microscopy as the degree of morphological alteration of a cell monolayer. The endpoint was on the 4th day of contact of the cells with the infectious material, after a well-defined (100%) cytopathic effect appeared in control samples (positive control). The presence of antiviral activity in samples of organogermanium compounds according to the invention was ascertained as the difference between the viral titers measured in the experiment and in the control.

[7] = physchem
Description: (§1) For this purpose, we studied the solubilities of these compounds at various pH values that correspond to the gastrointestinal fluids (for the intestinal fluid: pH is 1.2; for the duodenal fluid: pH 4.4; and for the small intestine fluid: pH 6.8).
(§2) One biopharmaceutical solubility value which allows describing a therapeutic drug (TD) as a compound having “high” or “low” solubility, is the dose/solubility ratio (D/S). The dose/solubility ratio is determined as follows: maximal dose (D) (mg)/water solubility (S) (mg/mL).
(§3) Importantly, biopharmaceutical solubility is not a constant value for a given therapeutic drug (TD); rather, it depends on the maximal registered dosage of an immediate-release TD intended for systemic effects.
(§4) One more biopharmaceutical value is the solubility in biorelevant media. These are dissolution media such that approach the human body fluids (intestinal fluid and gastric fluid) as closely as possible in terms of chemical composition and in terms of physicochemical properties (pH, osmomolality, buffer capacity, and surface tension). The simulation of physiological conditions is provided by introducing surfactants (lecithin and sodium taurocholate) into these media. There are two major types of biorelevant media, namely: an artificial intestinal fluid in an empty stomach (fasted state simulated intestinal fluid (FaSSIF)) and after eating (fed state simulated intestinal fluid (FeSSIF)).

[8] = tested on: HSV-2; details: Vero cells, cited from earlier work
[9] = in the presence of low, inefficient concentrations of xanthogenate; cited from earlier work
[10] = octanol-water partition coefficient log P; type: physicochemical; details: n-octanol and water
Description: A criterion that can serve as a measure of the absorption of the solute through the wall of the small intestine is permeability, i.e., the fraction of the substance permeating through the intestinal wall. The physicochemical property of a molecule that makes the greatest contribution to permeability is liphophilicity. A measure of lipophilicity to be used in indirect assessment of intestinal permeability is the octanol-water partition coefficient, log P, which is the logarithm of the ratio of concentrations of an unionized substance in the system of two immiscible liquids (n-octanol and water). […]

[11] = tested on: HSV-1; details: Vero cells, cited from earlier work
[12] = biopharmaceutical and biorelevant solubility (pH media, FaSSIF, FeSSIF)
Description: as §1, §2, §3, §4

[13] = tested on: HSV-1; details: combination of D609 and acyclovir; cited from earlier work
[14] = reference for high intestinal permeability; cited from earlier work

Question: With Nc1nc2c(ncn2COC(CO)CO)c(=O)[nH]1 [gancyclovir, 9-[(1,3-dihydroxy-2-propoxy)methyl]guanine] as the compound, how does the “reduction in gancyclovir concentration” value ([1]; combination with netropsin and bis-netropsin) read?
Answer: fivefold

Question: What about the bioavailability [2] of the same compound?
Answer: 5%

Question: With Nc1ncnc2c1ncn2[C@@H]1O[C@H](CO)[C@@H](O)[C@@H]1O [vidarabine, 9-β-D-arabinofuranosyl adenine] as the compound, how does the “water solubility (in words)” value [3] read?
Answer: poorly soluble

Question: With CC(=O)SC[C@H](NC(=O)CC[C@H](N)C(=O)O)C(=O)NCC(=O)O [S-acetyl glutathione] as the compound, how does the “effect of compositions with acyclovir against Varicella-Zoster virus” value [4] read?
Answer: noticeable synergistic effect

Question: What about the “effect of combination with acyclovir against HSV-1” value ([5]; S-acetyl glutathione combined with acyclovir) of the same compound?
Answer: strong synergistic effect

Question: And the “concentration from which efficient against HSV-1” value [5]?
Answer: ≥ 0.35 mg/mL

Question: Which results are given for Nc1nc2c(ncn2CCC(CO)CO)c(=O)[nH]1 [pencyclovir, 9-[4-hydroxy-3-(hydroxymethyl)butyl]guanine]?
Answer: bioavailability [2]: 1.5%; water solubility ([3]; at 20° C.): 1.74 mg/mL (≈ 6.87 mM)

Question: With CC(C)[C@H](N)C(=O)OCCOCn1cnc2c(=O)[nH]c(N)nc21 [valacyclovir, 2-(guanin-9-ylmethoxy)ethyl L-valine ether] as the compound, how does the “reduction of the infectious activity of the HSV-1 “L2/R” virus” value [6] read?
Answer: 1.5 log

Question: Which results are given for Nc1nc2c(ncn2COCCO)c(=O)[nH]1 [acyclovir, 9-[(2-hydroxyethoxy)methyl] guanine]?
Answer: solubility ([7]; FaSSIF (fasted state simulated intestinal fluid), fassif): 1.44 mg/mL (≈ 6.39 mM); solubility ([7]; FeSSIF (fed state simulated intestinal fluid), fessif): 1.38 mg/mL (≈ 6.13 mM); solubility ([7]; aqueous dissolution medium at pH 1.2, pH 1.2, simulated gastric fluid): 3.5 mg/mL (≈ 15.5 mM); solubility ([7]; aqueous dissolution medium at pH 4.5, pH 4.4, aqueous buffer): 2.6 mg/mL (≈ 11.5 mM); effect of combination against HSV-2 ([8]; acyclovir 0.1-3.4 mcg/mL with carbocyclic oxetanocin G 0.04-0.54 mcg/mL): synergistic effect; effect of combination against HSV-2 ([8]; acyclovir 0.1-3.4 mcg/mL with oxetanocin G 0.4-4 mcg/mL): synergistic effect; concentration for 50% inhibition of the virus-induced cytopathic effect ([1]; acyclovir used alone): 0.4 µg/mL; acyclovir concentration for 50% inhibition of the virus-induced cytopathic effect ([1]; combined with bis-netropsin 0.15 mcg/mL): 0.15 µg/mL; acyclovir concentration for 50% inhibition of the virus-induced cytopathic effect ([1]; combined with netropsin 2.5 mcg/mL): 0.075 µg/mL; bioavailability [2]: 15-20%; solubility in hydrophobic systems [3]: almost insoluble; increase of acyclovir activity in a cell culture [9]: fivefold; logP [10]: -1.57; effect of combination against HSV-1 ([11]; acyclovir 0.04-0.4 mcg/mL with carbocyclic oxetanocin G 0.01-0.2 mcg/mL): synergistic effect; effect of combination against HSV-1 ([11]; acyclovir 0.04-0.4 mcg/mL with oxetanocin G 0.4-5.4 mcg/mL): synergistic effect; Solubility (“high”/“low”) ([12]; FaSSIF): “low”; Solubility (“high”/“low”) ([12]; FeSSIF): “low”; Solubility (“high”/“low”) ([12]; pH 1.2): “high” (When D/S≦250 mL, the TD has “high” solubility in the relevant aqueous solution); Solubility (“high”/“low”) ([12]; pH 4.4-4.5 (4.4 for the tested compounds, 4.5 for acyclovir)): low and “low”; Solubility (“high”/“low”) ([12]; pH 6.8): low and “low”; solubility ([12]; pH 6.8): 2.4 mg/mL (≈ 10.7 mM)

Question: With S=C(S)OC1CC2CC1C1CCCC21 (centres unmarked) [D609, tricyclodecan-9-yl-xanthogenate] as the compound, how does the “survival of animals infected with HSV-1” value [13] read?
Answer: survival of all animals

Question: Which “log P of reference substance” value [14] does the source give for COCCc1ccc(OCC(O)CNC(C)C)cc1 (centres unmarked) [metoprolol] here?
Answer: 1.72
